Conditions: Liquid, Rate of evaporation

CCCCCCCCCCCCCC[P+](CCCC)(CCCC)CCCC.O=S(=O)([N-]S(=O)(=O)C(F)(F)F)C(F)(F)F
Conditions	vapor or sublimation pressure [kPa]
393.28 K	1.6e-09
395.67 K	2e-09
398.14 K	2.9e-09
400.54 K	4.1e-09
403.07 K	5.3e-09
405.5 K	7.3e-09
408.02 K	1e-08
410.51 K	1.4e-08
413.04 K	1.8e-08
415.54 K	2.5e-08
418.06 K	3.3e-08
420.57 K	4.4e-08
423.09 K	6e-08
425.61 K	7.6e-08
428.14 K	1.03e-07
430.65 K	1.35e-07
433.18 K	1.7e-07
435.69 K	2.23e-07
438.18 K	2.92e-07
440.71 K	3.73e-07

CCCCCC[P+](CCCCCC)(CCCCCC)CCCCCC.[Br-] [tetrahexylphosphonium bromide]
Conditions	vapor or sublimation pressure [kPa]
400.93 K	3.7e-10
403.37 K	5.3e-10
403.43 K	5e-10
408.28 K	9.5e-10
408.37 K	9.4e-10
410.79 K	1.2e-09
410.8 K	1.3e-09
410.82 K	1.3e-09
413.22 K	1.7e-09
413.3 K	1.7e-09
415.71 K	2.1e-09
415.72 K	2.2e-09
415.78 K	2.3e-09
418.18 K	2.9e-09
418.27 K	2.9e-09
420.76 K	3.9e-09
423.16 K	5.2e-09
423.23 K	5.4e-09
425.66 K	6.9e-09
425.67 K	6.8e-09
425.75 K	6.8e-09
428.16 K	8.8e-09
428.22 K	8.9e-09
430.73 K	1.2e-08
433.18 K	1.5e-08
433.24 K	1.5e-08
435.67 K	2e-08
435.68 K	2e-08
435.75 K	2e-08
438.21 K	2.5e-08
438.25 K	2.6e-08
440.7 K	3.3e-08
440.72 K	3.3e-08
440.77 K	3.4e-08
443.24 K	4.2e-08
443.29 K	4.3e-08
445.74 K	5.5e-08
445.75 K	5.5e-08
445.79 K	5.8e-08
448.3 K	7.2e-08
448.31 K	7.1e-08
450.8 K	9.1e-08
450.81 K	9e-08

CCCCCCCC[P+](CCCCCC)(CCCCCC)CCCCCC.F[P-](F)(F)(F)(F)F [trihexyloctylphosphonium hexafluorophosphate]
Conditions	vapor or sublimation pressure [kPa]
408.34 K	3.4e-10
410.85 K	4.4e-10
410.96 K	4.8e-10
413.36 K	6.3e-10
415.82 K	8.4e-10
415.89 K	8e-10
418.37 K	1.1e-09
420.79 K	1.5e-09
420.83 K	1.5e-09
423.37 K	2e-09
425.75 K	2.7e-09
425.79 K	2.7e-09
428.38 K	3.6e-09
430.75 K	4.6e-09
430.81 K	4.7e-09
433.38 K	6.1e-09
435.72 K	8e-09
435.73 K	7.9e-09
438.4 K	1.1e-08
440.74 K	1.4e-08
443.39 K	1.8e-08
445.76 K	2.3e-08
448.39 K	3e-08
450.79 K	3.9e-08
450.8 K	3.8e-08
453.43 K	5.1e-08
455.83 K	6.5e-08
455.85 K	6.4e-08

CCCCCC[P+](CCCCC)(CCCCCC)CCCCCC.F[P-](F)(F)(F)(F)F [trihexylpentylphosphonium hexafluorophosphate]
Conditions	vapor or sublimation pressure [kPa]
403.41 K	5e-10
405.89 K	6.6e-10
408.27 K	8.8e-10
410.78 K	1.2e-09
413.19 K	1.6e-09
415.69 K	2.1e-09
418.15 K	2.8e-09
420.65 K	3.7e-09
423.13 K	4.8e-09
425.62 K	6.5e-09
428.15 K	8.5e-09
430.63 K	1.1e-08
433.15 K	1.4e-08
435.65 K	1.8e-08
438.17 K	2.4e-08
440.7 K	3.1e-08
443.21 K	3.9e-08
445.73 K	5.1e-08
448.25 K	6.5e-08
450.79 K	8.3e-08

CCCCCCC[P+](CCCCCC)(CCCCCC)CCCCCC.F[P-](F)(F)(F)(F)F [trihexylheptylphosphonium hexafluorophosphate]
Conditions	vapor or sublimation pressure [kPa]
405.87 K	3.6e-10
408.4 K	4.9e-10
410.8 K	6.7e-10
413.34 K	9e-10
415.74 K	1.2e-09
418.27 K	1.6e-09
420.69 K	2.2e-09
423.22 K	2.8e-09
425.68 K	3.8e-09
428.2 K	4.9e-09
430.66 K	6.5e-09
433.19 K	8.4e-09
435.68 K	1.1e-08
438.21 K	1.5e-08
440.7 K	1.9e-08
443.24 K	2.5e-08
445.74 K	3.1e-08
448.28 K	4.2e-08
450.97 K	5.3e-08
453.32 K	6.9e-08

CCCCCCCCCCCCCC[P+](CCCCCC)(CCCCCC)CCCCCC.O=S(=O)([N-]S(=O)(=O)C(F)(F)F)C(F)(F)F
Conditions	vapor or sublimation pressure [kPa]
399.34 K	2.3e-11
404.33 K	4.6e-11
405.52 K	5.3e-11
407.95 K	7.1e-11
408.01 K	7.5e-11
409.24 K	8.6e-11
409.33 K	8.9e-11
410.52 K	1e-10
412.96 K	1.4e-10
413 K	1.5e-10
413.93 K	1.7e-10
414.15 K	1.7e-10
414.24 K	1.7e-10
414.33 K	1.7e-10
415.52 K	2e-10
417.97 K	2.9e-10
418 K	2.7e-10
419.13 K	3.2e-10
419.16 K	3.3e-10
419.24 K	3.1e-10
419.33 K	3.2e-10
420.52 K	3.8e-10
422.97 K	5.4e-10
423.01 K	5.1e-10
423.46 K	5.2e-10
424.17 K	6.4e-10
424.24 K	6.4e-10
424.31 K	6.1e-10
425.53 K	7.3e-10
427.91 K	9.2e-10
427.98 K	1e-09
428.01 K	1e-09
429.18 K	1e-09
429.24 K	1e-09
429.26 K	1.1e-09
430.53 K	1.3e-09
432.25 K	1.5e-09
433 K	1.8e-09
433.02 K	1.7e-09
434.17 K	2e-09
434.2 K	1.9e-09
434.24 K	1.9e-09
435.54 K	2.3e-09
436.8 K	2.6e-09
438.01 K	3.1e-09
438.02 K	3e-09
439.04 K	3.4e-09
439.21 K	3.6e-09
439.23 K	3.4e-09
440.54 K	4e-09
441.79 K	4.6e-09
443.01 K	5.2e-09
443.03 K	5.2e-09
443.88 K	5.8e-09
444.2 K	5.9e-09
444.26 K	6.3e-09
445.56 K	6.9e-09
446.75 K	8e-09
448.02 K	8.9e-09
448.07 K	8.7e-09
449.16 K	1e-08
449.26 K	1e-08
450.57 K	1.2e-08
451.67 K	1.4e-08
453.06 K	1.4e-08
454.09 K	1.7e-08
454.27 K	1.9e-08
456.51 K	2.2e-08
458.95 K	2.8e-08

CCCCCCC[P+](CCCCCC)(CCCCCC)CCCCCC.O=S(=O)([N-]S(=O)(=O)C(F)(F)F)C(F)(F)F [trihexylheptylphosphonium bis(trifluoromethanesulfonyl)imide]
Conditions	vapor or sublimation pressure [kPa]
408.53 K	6.2e-10
410.91 K	8.8e-10
413.56 K	1.1e-09
415.89 K	1.6e-09
418.57 K	2.1e-09
420.85 K	2.8e-09
423.58 K	3.8e-09
425.82 K	4.9e-09
428.58 K	6.7e-09
430.8 K	8.5e-09
433.58 K	1.2e-08
435.79 K	1.5e-08
438.58 K	2e-08
440.78 K	2.5e-08
443.58 K	3.4e-08
445.8 K	4.2e-08
448.56 K	5.8e-08
450.83 K	7e-08
453.59 K	9.5e-08
455.88 K	1.16e-07

CCCCCCCC[P+](CCCCCCCC)(CCCCCCCC)CCCCCCCC.[Cl-] [tetraoctylphosphonium chloride]
Conditions	vapor or sublimation pressure [kPa]
408.38 K	1.5e-10
410.9 K	2.3e-10
413.32 K	2.9e-10
413.46 K	3.3e-10
415.87 K	4.2e-10
418.26 K	5.5e-10
418.44 K	5.9e-10
420.79 K	7.9e-10
423.23 K	1e-09
423.41 K	1.2e-09
425.8 K	1.5e-09
428.2 K	2e-09
428.36 K	2e-09
430.73 K	2.7e-09
433.18 K	3.8e-09
433.31 K	3.7e-09
435.74 K	5e-09
438.21 K	6.7e-09
438.28 K	6.6e-09
440.77 K	8.8e-09
443.21 K	1.2e-08
443.3 K	1.2e-08
445.8 K	1.5e-08
448.27 K	2.1e-08
448.33 K	2e-08
450.84 K	2.6e-08
453.31 K	3.9e-08
453.36 K	3.4e-08
455.89 K	4.6e-08
458.4 K	6.2e-08

CCCCCC[P+](CCCCCC)(CCCCCC)CCCCCC.F[P-](F)(F)(F)(F)F [tetrahexylphosphonium hexafluorophosphate]
Conditions	vapor or sublimation pressure [kPa]
395.83 K	2e-10
400.74 K	3.8e-10
405.65 K	7e-10
408.42 K	1e-09
410.61 K	1.3e-09
413.37 K	1.9e-09
415.59 K	2.4e-09
418.31 K	3.4e-09
423.24 K	5.9e-09
428.21 K	1e-08
430.65 K	1.4e-08
433.2 K	1.8e-08
435.66 K	2.4e-08
438.23 K	3.1e-08
440.69 K	4e-08
443.24 K	5e-08
445.73 K	6.7e-08
448.28 K	8.5e-08
451.57 K	1.23e-07
453.41 K	1.42e-07
